# Data as given in patent US9028845B2, “Chimeric immunomodulatory compounds and methods of using the same-IV” (Dynavax Technologies Corporation, priority 2001, dated 2015).
# Tests used:
# mice = assay: Serum cytokines (IL-12 p40, IL-6, TNF-α) after subcutaneous injection in mice; type: in vivo; details: 20 ug subcutaneous, blood 2 hours later
# Protocol: Blood was collected 2 hours later. For the LPS positive control group, mice were injected intraperitoneally with a 200 ul volume, and blood was collected 1.5 hours later (i.e., at the peak of LPS induced TNF-α activity). The blood was clotted and the serum was prepared and stored at −80° C. until assayed. Serum cytokines were assayed using Biosource cytoscreen kits for TNF-α and Pharmingen antibody pairs for mIL-6 and mIL-12. All samples were assayed in duplicate.
# PBMCs = assay: Human PBMC proliferation assay (3H-thymidine incorporation); type: cell-based; details: Experiment A; for mean cpm: 2 μg/ml
# mouse splenocytes = assay: Mouse splenocyte cytokine secretion (IL-6, IL-12, IFN by ELISA); type: cell-based, BALB/c mice; details: 24 h
# Protocol: Polynucleotides and chimeric compounds were tested for immunostimulatory activity on mouse splenocytes. Immunostimulation was assessed by measurement of cytokine secretion into the culture media. Cytokine levels in the culture supernatant were determined by enzyme-linked immunosorbent assay (ELISA) tests.
# Cells were isolated and prepared using standard techniques. Spleens of 8 to 20 week-old BALB/c mice were harvested and the splenocytes isolated using standard teasing and treatment with ACK lysing buffer from BioWhittaker, Inc. Four spleens were pooled in this experiment. Isolated cells were washed in RPMI 1640 media supplemented with 2% heat-inactivated fetal calf serum (FCS), 50 μM 2-mercaptoethanol, 1% penicillin-streptomycin, and 2 mM L-glutamine and resuspended at approximately […] in 10% FCS/RPMI (RPMI 1640 media with 10% heat-inactivated FCS, 50 μM 2-mercaptoethanol, 1% penicillin-streptomycin, and 2 mM L-glutamine).
# Cell cultures were set up in triplicate with approximately 7×10^5 cells/well in a 96-well flat microtiter plate in 100 μl 10% FCS/RPMI with the cells allowed to rest for at lest 1 hour after plating. The indicated test compounds were incubated (at the indicated concentrations) for 24 hours at 37° C. Cell supernatants were harvested and frozen at −80° C. Cytokine production by the cells was determined by ELISAs, as shown in 19.
# CD19+ B cells = assay: Human B cell proliferation assay (3H-thymidine incorporation); details: 2 μg/ml
# mouse lung = assay: Induction of immune-associated genes in the mouse lung after intranasal treatment (quantitative PCR); type: in vivo, BALB/c mice; details: 20 ug intranasal, 6 hrs; vs P-7 treated mice
# Protocol: The genes evaluated included genes encoding cytokines, chemokines, cell surface molecules, transcription factors, metalloproteases, and other molecules. The study was performed at Northview Pacific Laboratories (Hercules, Calif.) with 6-8 week old female BALB/c mice from Jackson Labs (Bar Harbor, Me.). […] Therefore, at 6 hrs the lungs were harvested and snap-frozen in liquid nitrogen and stored at −80° C. for later use. Total RNA was isolated using RNeasy mini kits (Qiagen Inc., Valencia, Calif.). The RNA samples were DNAse-treated (Roche Diagnostics, Mannheim, Germany) and converted into cDNA using Superscript II Rnase H-Reverse Transcriptase (Invitrogen, Rockville Md.) as described in Scheerens et al., 2001, Eur. J. of Immunology 31:1465-74. The cDNA samples were pooled per group and in each pooled sample the expression of mRNA of 75 genes was measured using real-time quantitative PCR (ABI Prism 5700, Perkin Elmer Applied Biosystems) and syber green (Qiagen Inc.). In addition to the genes of interest, in each sample the mRNA expression of a housekeeping gene was measured (HPRT or ubiquitin). In order to correct for the amount of RNA in each sample, all data were calculated relative to the expression of the housekeeping gene.
# [1] = B cells, Donor 146, Experiment A
# [2] = B cells, Donor 147, Experiment A
# [3] = B cells, donor 194, Experiment B
substance,measurement,setting,value
"5′-TGACTGTGAACGTTCGAGATGA-3′ (SEQ ID NO: 2) [Compound P-6, reference compound]","induction of serum IL-12 p40, IL-6 and TNF-α, in words",mice,"induced IL-12 p40, IL-6, and TNF-α"
same,cpm1,"PBMCs; Donor 146, 2 μg/ml",22067 cpm
same,cpm2,"PBMCs; Donor 146, 2 μg/ml",23740 cpm
same,cpm3,"PBMCs; Donor 146, 2 μg/ml",28099 cpm
same,mean cpm,PBMCs; Donor 146 mean,24635 cpm
same,cpm1,"PBMCs; Donor 147, 2 μg/ml",26436 cpm
same,cpm2,"PBMCs; Donor 147, 2 μg/ml",23830 cpm
same,cpm3,"PBMCs; Donor 147, 2 μg/ml",17531 cpm
same,mean cpm,PBMCs; Donor 147 mean,22599 cpm
same,mean of both,"PBMCs; mean of Donors 146 and 147, 2 μg/ml",23617 cpm
same,IFN,mouse splenocytes; dose 0.1 μg/ml,187
same,IL-12,mouse splenocytes; dose 0.1 μg/ml,1665
same,IFN,mouse splenocytes; dose 1.0 μg/ml,2175
same,IL-6,mouse splenocytes; dose 1.0 μg/ml,5760
same,IL-12,mouse splenocytes; dose 1.0 μg/ml,4565
same,IFN,mouse splenocytes; dose 5.0 μg/ml,2505
same,IL-6,mouse splenocytes; dose 5.0 μg/ml,9311
same,IL-12,mouse splenocytes; dose 5.0 μg/ml,5374
same,"B cell proliferation, in words",CD19+ B cells; 48 h plus 8 h 3H-thymidine pulse,cause B cells to proliferate
same,cpm1,CD19+ B cells; [1],29280 cpm
same,cpm2,CD19+ B cells; [1],33430 cpm
same,cpm3,CD19+ B cells; [1],30056 cpm
same,mean cpm,"CD19+ B cells; B cells, Donor 146 mean, Experiment A",30922 cpm
same,cpm1,CD19+ B cells; [2],35729 cpm
same,cpm2,CD19+ B cells; [2],18032 cpm
same,cpm3,CD19+ B cells; [2],21166 cpm
same,mean cpm,"CD19+ B cells; B cells, Donor 147 mean, Experiment A",24976 cpm
same,cpm1,CD19+ B cells; [3],13678 cpm
same,cpm2,CD19+ B cells; [3],12732 cpm
same,cpm3,CD19+ B cells; [3],9003 cpm
same,mean cpm,"CD19+ B cells; B cells, donor 194 mean, Experiment B",11804 cpm
same,mean of both,"CD19+ B cells; B cells, mean of Donors 146 and 147, Experiment A",27949 cpm
same,"mRNA expression of immune-associated genes in the lung, in words",mouse lung,potently induce the expression of a variety of genes
